Test results: article PMC12951430, “Modular Vinyl Phosphonamidates for Cysteine-Directed Protein Targeting” (Journal of the American Chemical Society, 2026)

Columns and labels:
[1] = unprotected lysine 10 equiv, 5 days, pH 7.4 and pH 8.5, room temperature
Protocol: To this end, unprotected lysine (10 equiv) was incubated with 1a for 5 days (pH 7.4 and pH 8.5, room temperature).
The assay was performed analogously to glutathion reactivity using L -lysine. In addition to pH 7.4
The reaction was monitored for a total
of 5 days and aliquotes were taken at indicated timepoints and analyzed via UPLC -UV/MS.

RAMOS cells = test: Streptavidin pull-down with BTK probes in RAMOS cells (LFQ); format: cell-based, human; details: 10 μM probe, log2-fold change >2.5, p <0.01
Protocol: (b) Comparison of the in-cell reactivity profiles of BTK probes 8–12 in RAMOS cells (250 nM, 1 h, 37 °C) analyzed by gel-based ABPP. (c) Superposition of the two stereoisomers of 9 covalently docked onto the crystal structure of BTK (PDB: 5P9J).
To verify the identity of the protein(s) labeled by our best-performing probe 9, we performed in-cell labeling followed by streptavidin pull-down coupled to LC-MS/MS analysis.
4.8 In-cell protein labeling and s ample preparation for proteomic pull-down Cells were cultured, treated and lysed as described in 4.4. Lysates (approx. 200 μg of protein each) […]
Afterwards, the samples we re processed according to a procedure published by Becker et al. 10: A total of 50 μl of mixed hydrophobic and hydrophilic carboxylate -coated magnetic beads (1:1, prewashed with PBS; Seramag™, Cytavia) was added to the click reaction mixture followed by 600 μl of absolute ethanol to precipitate the proteins. Beads were washed thrice with of 80% ethanol and proteins were eluted by two sequential washes of 0.2% SDS in PBS. […]
The obtained raw-data was analyzed using FragPipe (v20 to 21) using the built-in LFQ-MBR workflow using the whole human proteome as search space and applying the following MSFragger11 settings: […]

BTK in RAMOS cells = molecular target: T1, BTK in RAMOS cells (Homo sapiens, UniProt Q06187); test: Gel-based ABPP of BTK probes in RAMOS cells; format: cell-based; details: 250 nM, 1 h, 37 °C
T1 construct: we performed a gel-based ABPP experiment using RAMOS cells; host or cells: RAMOS
T1 sequence (Q06187 whole entry): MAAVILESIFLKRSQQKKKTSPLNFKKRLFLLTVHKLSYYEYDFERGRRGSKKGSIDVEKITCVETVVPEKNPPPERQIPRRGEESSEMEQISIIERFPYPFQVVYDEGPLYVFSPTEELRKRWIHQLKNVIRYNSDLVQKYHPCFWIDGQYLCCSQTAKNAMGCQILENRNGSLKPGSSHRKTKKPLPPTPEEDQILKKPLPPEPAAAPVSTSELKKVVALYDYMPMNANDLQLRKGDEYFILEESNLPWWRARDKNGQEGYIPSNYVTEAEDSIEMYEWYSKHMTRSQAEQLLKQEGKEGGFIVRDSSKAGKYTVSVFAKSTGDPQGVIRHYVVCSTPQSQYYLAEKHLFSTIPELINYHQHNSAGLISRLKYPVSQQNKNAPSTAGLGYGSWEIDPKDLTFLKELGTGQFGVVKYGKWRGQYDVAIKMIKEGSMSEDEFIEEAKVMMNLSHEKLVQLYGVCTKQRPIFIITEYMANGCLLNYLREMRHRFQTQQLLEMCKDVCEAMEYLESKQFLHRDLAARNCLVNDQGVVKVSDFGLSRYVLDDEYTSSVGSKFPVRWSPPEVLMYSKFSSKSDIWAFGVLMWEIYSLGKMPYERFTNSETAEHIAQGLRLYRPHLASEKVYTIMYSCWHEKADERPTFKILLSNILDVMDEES
From the text: Motivated by these promising results, we wanted to extend the scope toward a different class of kinase inhibitors. […] Inspired by these findings, we synthesized a series of VPA probes based on the pyrazolo[3,4-d]-pyrimidine scaffold (8–11, Figure a), each harboring a different aromatic linker. To compare their reactivity and selectivity for BTK, we performed a gel-based ABPP experiment using RAMOS cells. […] In contrast, for all four PA probes, only one intense band was obtained at the same height as BTK. […] Analogously to Afatinib-derived probe 4a, we wanted to investigate whether one stereoisomer might show preferential binding.
(b) Comparison of the in-cell reactivity profiles of BTK probes 8–12 in RAMOS cells (250 nM, 1 h, 37 °C) analyzed by gel-based ABPP. […]
Fluorescence was monitored over 4 h at 30 °C every 60 seconds (λex = 360 nm and λem = 492 nm).
Background‑subtracted fluorescence intensity (RFU) was plotted against time (s), and data were fitted to a single‑phase association model: […]
4.7 In-cell protein labeling and in -gel fluorescence analysis […]
Afterwards, the precipitate was redissolved in 40 µl 8 M urea (100 mM Tris, pH 8), 8 µl Laemmli buffer were added and the samples were denatured at 95 °C for 5 minutes. Proteins were seperated via SDS - PAGE (12% or 4-20% acrylamide gels) and analyzed on a Gel Doc XR+ (Bio-Rad, USA). […]

SMILES | reactivity toward L-lysine / buffer stability [1] | off-targets significantly enriched (RAMOS cells) | in-cell reactivity profile (gel bands) (BTK in RAMOS cells)
C=CP(=O)(Nc1ccccc1)OCC (stereo not drawn) [1a] | no reaction or degradation products were detected |  | 
C#Cc1cccc(Oc2ccc(-c3nn(C4CCCN(C(=O)C=C)C4)c4ncnc(N)c34)cc2)c1 (stereo not drawn) [compound 12, PF-06658607, reference compound] |  | 73 | additional prominent off-target band around 60 kDa
